This note sets out measurements from US20120220581A1, “IMIDAZO[1,2-b]PYRIDAZINE DERIVATIVES AND THEIR USE AS PDE10 INHIBITORS” (Janssen-Cilag, S.A., priority 2009, published 2012).

In test [1] the target is other members of the PDE family (Homo sapiens, UniProt Q13946). Briefly: In vitro PDE selectivity assay (SPA), other members of the PDE family (protocols in Table A). The test is classed as biochemical. To be noted: hPDE7A1; read-out: PDE 7A (expressed as pIC50) (converted). An outline of the steps:
(§1)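 Inhibition of each PDE isoform was measured by scintillation proximity assay with ³H-cyclic nucleotide substrate, using incubation buffer, substrate concentration, incubation time and stop solution adapted per isoform. Compounds were tested in dose-response against 1% DMSO controls and enzyme-free blanks. IC50 came from a least-squares fit of blank-subtracted % of control versus concentration.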

The target in test [2] is other members of the PDE family (Homo sapiens, UniProt Q9HCR9). Described as above. The test is classed as biochemical. To be noted: hPDE11A4; read-out: PDE 11A4 (expressed as pIC50) (converted). An outline of the steps:
as §1

In test [3] the target is other members of the PDE family (Homo sapiens, UniProt O00408). The description is as above. The test is classed as biochemical. To be noted: hPDE2A; read-out: PDE 2A (expressed as pIC50) (converted). An outline of the steps:
as §1

The target in test [4] is other members of the PDE family (Homo sapiens, UniProt Q14432). The test is described as above. The test is classed as biochemical. To be noted: hPDE3A; read-out: PDE 3A (expressed as pIC50) (converted). An outline of the steps:
as §1

Test [5] addresses other members of the PDE family (Homo sapiens, UniProt O76083). The test is described as above. Format: biochemical. To be noted: hPDE9A; read-out: PDE 9A (expressed as pIC50) (converted). In outline: as §1
Test [6] relates to apomorphine-induced stereotypy in rats. The test is described as follows: Apomorphine-induced stereotypy in rats (APO). To be noted: Rattus norvegicus, ≧: active in 30% of the animals at the indicated dose, ≦: active in 60%. Format: in vivo. As to the method: Apomorphine (1.0 mg/kg, i.v.)-induced stereotypy (compulsive sniffing, licking, chewing) was scored every 5 min over the first hour after injection of apomorphine, following a 1 hour interval pre-treatment with the test compound. The score system was: (3) pronounced, (2) moderate, (1) slight, and (0) absent.

The next test has as its target PDE5A3 (Homo sapiens, UniProt O76074). Briefly: In vitro PDE selectivity assay (SPA), PDE5A3. The test is classed as biochemical. To be noted: hPDE5A3; read-out: PDE 5A3 (expressed as pIC50) (converted). As to the method: (§2) Rat recombinant PDE10A (rPDE10A2) was expressed in Sf9 cells using a recombinant rPDE10A baculovirus construct. Cells were harvested after 48 h of infection and the rPDE10A protein was purified by metal chelate chromatography on Ni-sepharose 6FF. Tested compounds were dissolved and diluted in 100% DMSO to a concentration 100 fold of the final concentration in the assay. Compound dilutions (0.4 μl) were added in 384 well plates to 20 μl of incubation buffer (50 mM Tris pH 7.8, 8.3 mM MgCl2, 1.7 mM EGTA). 10 μl of rPDE10A enzyme in incubation buffer was added and the reaction was started by addition of 10 μl substrate to a final concentration of 60 nM cAMP and 0.008 μCi ^3H-cAMP. The reaction was incubated for 60 minutes at room temperature. After incubation, the reaction was stopped with 20 μl of stop solution consisting of 17.8 mg/ml PDE SPA (scintillation proximity assay) beads. After sedimentation of the beads during 30 minutes the radioactivity was measured in a Perkin Elmer Topcount scintillation counter and results were expressed as cpm. For blanc values the enzyme was omitted from the reaction and replaced by incubation buffer. Control values were obtained by addition of a final concentration of 1% DMSO instead of compound. The same assay principle is applied for the measurement of the affinity of the compound for other members of the PDE family with appropriate modifications in incubation buffer, substrate concentration, incubation time and stop solution. An overview of the different protocols is presented in table A. A best fit curve is fitted by a minimum sum of squares method to the plot of % of control value substracted with blanc value versus compound concentration and the half maximal inhibitory concentration (IC50) value is derived from this curve.
(§3) The compounds of the invention are generally selective for PDE10 compared to other PDEs and there are a few that also have affinity for PDE1B1, 4D3 and 5A3.

The next test concerns the target PDE4D3 (Homo sapiens, UniProt Q08499). The test is described as follows: In vitro PDE selectivity assay (SPA), PDE4D3. Format: biochemical. To be noted: hPDE4D3; read-out: PDE 4D3 (expressed as pIC50) (converted). As to the method:
as §2, §3

Test [7] deals with T1, Rat recombinant PDE10A (rPDE10A2) (Rattus norvegicus, UniProt Q9QYJ6).
T1 construct: inferred from the Ni metal chelate purification; made in house; host or cells: Sf9 insect cells (baculovirus)
T1 sequence (Q9QYJ6 1-794): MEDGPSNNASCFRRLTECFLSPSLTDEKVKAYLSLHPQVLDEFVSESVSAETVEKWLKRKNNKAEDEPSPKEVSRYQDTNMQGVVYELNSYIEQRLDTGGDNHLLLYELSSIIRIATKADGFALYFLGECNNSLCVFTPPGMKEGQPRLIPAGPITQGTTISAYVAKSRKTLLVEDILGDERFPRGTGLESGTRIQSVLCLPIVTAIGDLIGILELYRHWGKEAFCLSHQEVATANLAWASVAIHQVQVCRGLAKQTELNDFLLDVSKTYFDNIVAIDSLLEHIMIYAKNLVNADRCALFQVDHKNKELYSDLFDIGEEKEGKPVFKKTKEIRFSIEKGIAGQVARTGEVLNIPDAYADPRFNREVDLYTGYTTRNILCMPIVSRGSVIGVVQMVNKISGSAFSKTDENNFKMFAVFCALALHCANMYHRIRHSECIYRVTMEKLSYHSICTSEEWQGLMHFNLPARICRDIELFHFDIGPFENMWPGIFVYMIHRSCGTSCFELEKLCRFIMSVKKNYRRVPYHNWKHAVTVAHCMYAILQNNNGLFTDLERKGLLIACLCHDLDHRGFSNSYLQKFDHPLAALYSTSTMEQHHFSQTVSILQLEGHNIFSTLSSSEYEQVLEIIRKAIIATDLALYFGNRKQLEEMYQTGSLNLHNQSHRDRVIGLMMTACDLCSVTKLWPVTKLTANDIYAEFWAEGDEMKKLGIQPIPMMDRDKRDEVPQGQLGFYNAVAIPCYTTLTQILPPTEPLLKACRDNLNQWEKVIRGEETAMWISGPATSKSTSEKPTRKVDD
Briefly: In vitro assay PDE10A (SPA, 3H-cAMP). Format: biochemical. In outline: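 Rat PDE10A2 expressed in Sf9 cells and Ni-purified; incubated with 60 nM cAMP plus 0.008 μCi 3H-cAMP in 50 mM Tris pH 7.8, 8.3 mM MgCl2, 1.7 mM EGTA for 60 min at room temperature. Product quantified by scintillation proximity counting; final DMSO 1%.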

The mark [8] stands for this setting: dose at which 50% of the tested animals show the effect.
The mark [9] stands for this setting: Table 4 in vitro selectivity, read-out: PDE 10A2 (expressed as pIC50) (converted).
[10] abbreviates: pIC50 corresponds to the −log IC50 expressed in mol/L, read-out: PDE10A2 pIC50 (converted).
Setting [11] is: po, * compound not soluble, tested orally as a suspension.

Where two headings read alike, the source gives them in different places.

Chain of PDE4D3 (Q08499 1-673 isoform Q08499-2): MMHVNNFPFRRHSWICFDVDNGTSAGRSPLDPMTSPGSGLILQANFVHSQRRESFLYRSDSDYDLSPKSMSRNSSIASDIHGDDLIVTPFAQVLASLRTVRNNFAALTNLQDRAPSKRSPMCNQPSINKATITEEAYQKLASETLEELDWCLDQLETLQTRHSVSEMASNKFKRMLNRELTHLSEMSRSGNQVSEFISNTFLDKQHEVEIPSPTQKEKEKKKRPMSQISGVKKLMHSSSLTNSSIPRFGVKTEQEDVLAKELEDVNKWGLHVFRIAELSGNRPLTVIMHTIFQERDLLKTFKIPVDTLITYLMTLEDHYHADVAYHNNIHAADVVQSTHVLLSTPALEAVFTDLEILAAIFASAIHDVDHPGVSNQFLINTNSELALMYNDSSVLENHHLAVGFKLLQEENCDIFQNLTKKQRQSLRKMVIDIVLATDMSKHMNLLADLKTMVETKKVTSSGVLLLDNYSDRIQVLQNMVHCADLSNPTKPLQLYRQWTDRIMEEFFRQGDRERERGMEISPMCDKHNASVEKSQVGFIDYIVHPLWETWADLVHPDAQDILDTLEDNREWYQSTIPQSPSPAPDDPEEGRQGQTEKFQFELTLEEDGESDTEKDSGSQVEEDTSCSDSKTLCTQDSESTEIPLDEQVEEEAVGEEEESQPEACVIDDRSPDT
Chain of other members of the PDE family (Homo sapiens, UniProt Q13946) (Q13946 whole entry, canonical isoform): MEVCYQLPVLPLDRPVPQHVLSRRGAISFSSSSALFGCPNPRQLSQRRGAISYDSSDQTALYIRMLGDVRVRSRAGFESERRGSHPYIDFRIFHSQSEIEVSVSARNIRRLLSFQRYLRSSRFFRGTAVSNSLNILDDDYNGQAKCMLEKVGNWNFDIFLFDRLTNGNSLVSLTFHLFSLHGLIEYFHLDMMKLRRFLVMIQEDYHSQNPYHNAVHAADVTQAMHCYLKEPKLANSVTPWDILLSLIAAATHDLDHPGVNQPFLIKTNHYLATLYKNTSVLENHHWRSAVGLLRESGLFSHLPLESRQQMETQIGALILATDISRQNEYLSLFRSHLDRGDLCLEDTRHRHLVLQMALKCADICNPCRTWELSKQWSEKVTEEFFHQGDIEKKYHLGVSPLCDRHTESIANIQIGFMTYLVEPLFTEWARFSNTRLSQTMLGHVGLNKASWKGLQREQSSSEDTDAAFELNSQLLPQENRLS
Chain of other members of the PDE family (Homo sapiens, UniProt Q14432) (Q14432 whole entry): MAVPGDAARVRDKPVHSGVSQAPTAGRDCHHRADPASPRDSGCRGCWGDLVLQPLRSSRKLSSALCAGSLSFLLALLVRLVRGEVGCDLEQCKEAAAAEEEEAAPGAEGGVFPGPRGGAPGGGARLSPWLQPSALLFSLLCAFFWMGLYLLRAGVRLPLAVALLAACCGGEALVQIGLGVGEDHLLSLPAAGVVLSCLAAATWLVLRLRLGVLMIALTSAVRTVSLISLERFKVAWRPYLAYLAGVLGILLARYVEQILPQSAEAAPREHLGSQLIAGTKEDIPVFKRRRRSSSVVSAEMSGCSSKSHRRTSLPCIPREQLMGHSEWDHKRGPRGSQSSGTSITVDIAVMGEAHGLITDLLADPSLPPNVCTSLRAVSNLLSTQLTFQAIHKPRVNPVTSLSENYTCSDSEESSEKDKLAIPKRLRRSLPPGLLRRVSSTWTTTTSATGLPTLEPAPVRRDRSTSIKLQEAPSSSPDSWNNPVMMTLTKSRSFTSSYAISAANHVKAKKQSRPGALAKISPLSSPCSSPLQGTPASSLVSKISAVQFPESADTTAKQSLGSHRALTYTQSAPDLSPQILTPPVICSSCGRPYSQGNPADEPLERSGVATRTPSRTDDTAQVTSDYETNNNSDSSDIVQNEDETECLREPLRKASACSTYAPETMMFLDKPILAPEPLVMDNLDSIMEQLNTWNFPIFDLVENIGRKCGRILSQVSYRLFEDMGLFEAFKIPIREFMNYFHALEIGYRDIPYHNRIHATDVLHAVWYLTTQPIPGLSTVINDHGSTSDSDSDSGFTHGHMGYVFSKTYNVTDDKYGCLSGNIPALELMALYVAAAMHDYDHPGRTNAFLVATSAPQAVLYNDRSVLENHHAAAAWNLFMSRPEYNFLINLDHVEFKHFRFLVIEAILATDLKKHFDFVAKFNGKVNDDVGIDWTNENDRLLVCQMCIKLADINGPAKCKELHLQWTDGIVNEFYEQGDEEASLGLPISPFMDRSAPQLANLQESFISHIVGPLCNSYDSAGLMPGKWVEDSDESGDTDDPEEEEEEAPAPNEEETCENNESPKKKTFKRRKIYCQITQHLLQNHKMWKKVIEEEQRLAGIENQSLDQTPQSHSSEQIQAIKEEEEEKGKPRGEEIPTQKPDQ
Chain of other members of the PDE family (Homo sapiens, UniProt O76083) (O76083 whole entry): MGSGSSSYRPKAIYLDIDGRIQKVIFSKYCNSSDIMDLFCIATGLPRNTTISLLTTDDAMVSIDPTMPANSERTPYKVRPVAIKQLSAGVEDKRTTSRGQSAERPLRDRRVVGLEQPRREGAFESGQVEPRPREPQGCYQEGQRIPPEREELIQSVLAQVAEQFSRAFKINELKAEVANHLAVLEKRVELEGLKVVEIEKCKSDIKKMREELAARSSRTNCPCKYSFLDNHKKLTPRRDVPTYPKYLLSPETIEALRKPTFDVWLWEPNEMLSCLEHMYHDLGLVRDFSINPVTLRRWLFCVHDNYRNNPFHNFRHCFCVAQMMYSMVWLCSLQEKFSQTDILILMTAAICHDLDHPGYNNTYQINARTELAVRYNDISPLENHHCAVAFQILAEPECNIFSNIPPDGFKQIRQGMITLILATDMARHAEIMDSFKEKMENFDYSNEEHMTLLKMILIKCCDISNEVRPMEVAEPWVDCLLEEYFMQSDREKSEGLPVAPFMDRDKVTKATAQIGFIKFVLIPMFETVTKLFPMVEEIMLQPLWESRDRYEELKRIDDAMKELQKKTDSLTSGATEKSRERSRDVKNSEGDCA
Chain of other members of the PDE family (Homo sapiens, UniProt Q9HCR9) (Q9HCR9 whole entry): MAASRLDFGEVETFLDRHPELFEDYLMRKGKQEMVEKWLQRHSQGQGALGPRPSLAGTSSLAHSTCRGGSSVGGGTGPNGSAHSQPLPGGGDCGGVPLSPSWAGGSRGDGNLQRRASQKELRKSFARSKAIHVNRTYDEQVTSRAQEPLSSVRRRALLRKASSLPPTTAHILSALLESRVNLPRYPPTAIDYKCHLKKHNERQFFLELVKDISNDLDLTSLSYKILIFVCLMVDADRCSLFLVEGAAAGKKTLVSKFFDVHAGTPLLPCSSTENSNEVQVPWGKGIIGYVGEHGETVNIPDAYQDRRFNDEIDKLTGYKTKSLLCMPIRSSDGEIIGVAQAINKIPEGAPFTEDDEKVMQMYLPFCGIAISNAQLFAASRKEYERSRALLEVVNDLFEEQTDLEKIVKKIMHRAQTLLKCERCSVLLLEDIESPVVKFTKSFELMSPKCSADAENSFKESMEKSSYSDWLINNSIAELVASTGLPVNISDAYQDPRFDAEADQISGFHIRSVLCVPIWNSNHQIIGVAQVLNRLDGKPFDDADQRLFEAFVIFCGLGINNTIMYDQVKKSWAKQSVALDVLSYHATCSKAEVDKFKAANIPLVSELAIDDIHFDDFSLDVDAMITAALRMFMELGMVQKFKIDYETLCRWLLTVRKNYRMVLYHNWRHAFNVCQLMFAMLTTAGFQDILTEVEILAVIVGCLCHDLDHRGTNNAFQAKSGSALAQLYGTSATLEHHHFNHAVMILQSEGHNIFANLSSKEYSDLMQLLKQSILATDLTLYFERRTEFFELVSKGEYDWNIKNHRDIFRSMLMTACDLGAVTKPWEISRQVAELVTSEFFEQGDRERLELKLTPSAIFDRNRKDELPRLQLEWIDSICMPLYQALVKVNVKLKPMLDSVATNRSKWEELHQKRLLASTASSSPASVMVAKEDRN
Chain of other members of the PDE family (Homo sapiens, UniProt O00408) (O00408 whole entry): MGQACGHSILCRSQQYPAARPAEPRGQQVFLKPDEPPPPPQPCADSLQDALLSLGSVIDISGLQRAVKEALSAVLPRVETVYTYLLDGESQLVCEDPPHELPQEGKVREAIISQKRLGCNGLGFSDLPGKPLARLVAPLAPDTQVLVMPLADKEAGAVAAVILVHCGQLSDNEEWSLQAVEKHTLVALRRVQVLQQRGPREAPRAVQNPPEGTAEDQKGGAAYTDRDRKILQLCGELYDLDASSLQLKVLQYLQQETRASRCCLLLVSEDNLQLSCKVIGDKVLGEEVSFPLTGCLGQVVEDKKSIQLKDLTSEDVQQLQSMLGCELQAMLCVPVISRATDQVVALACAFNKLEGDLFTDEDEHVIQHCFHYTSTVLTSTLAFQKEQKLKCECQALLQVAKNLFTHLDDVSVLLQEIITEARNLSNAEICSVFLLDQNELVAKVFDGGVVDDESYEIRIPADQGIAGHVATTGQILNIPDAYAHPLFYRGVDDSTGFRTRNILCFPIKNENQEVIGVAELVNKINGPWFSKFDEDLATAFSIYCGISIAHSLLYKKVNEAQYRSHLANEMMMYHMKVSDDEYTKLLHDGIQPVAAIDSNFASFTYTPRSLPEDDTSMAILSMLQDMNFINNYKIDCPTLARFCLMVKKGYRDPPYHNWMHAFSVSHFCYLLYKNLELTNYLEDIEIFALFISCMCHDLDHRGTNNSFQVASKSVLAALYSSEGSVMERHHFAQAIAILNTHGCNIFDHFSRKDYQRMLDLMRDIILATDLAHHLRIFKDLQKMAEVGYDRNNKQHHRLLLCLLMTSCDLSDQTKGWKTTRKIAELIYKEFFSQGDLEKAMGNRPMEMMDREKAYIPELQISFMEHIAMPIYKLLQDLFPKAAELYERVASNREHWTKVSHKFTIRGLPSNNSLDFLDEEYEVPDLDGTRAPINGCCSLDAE

As to `COCCc1ccc(-c2c(C3CC3)nc3c(-c4ccncc4)ccnn23)cn1` [compound 10, 2-cyclopropyl-3-[6-(2-methoxyethyl)-3-pyridinyl]-8-(4-pyridinyl)-imidazo[1,2-b]pyridazine], the IC50 is greater than 10 µM in [1]; 1.41 µM in test [2]; 6.61 µM in [3]; greater than 10 µM in test [4]; greater than 10 µM in [5]; 1.29 µM on PDE5A3. Also, the IC50 on PDE4D3 is 1.26 µM; in [7] (setting [9]), 0.0115 µM; in test [7] (setting [10]), 0.0115 µM. Moreover, it took a dose of 1.2 mg/kg to reach the 50% effect level in [6] (setting [8]) (ED50).
As for `COC(C)(C)CCc1ccc(-c2c(C)nc3c(N4CCOCC4)ccnn23)cn1` [compound 29, 3-[6-(3-methoxy-3-methylbutyl)-3-pyridinyl]-2-methyl-8-(4-morpholinyl)-imidazo[1,2-b]pyridazine], the IC50 in [1] was greater than 10 µM; in test [2], greater than 10 µM; in test [3] it was 1.2 µM; in [4], greater than 10 µM; in [5], greater than 10 µM; at PDE5A3, 4.47 µM. The results for the IC50 (at PDE4D3; in test [7] (setting [9]); in test [7] (setting [10])) were greater than 10 µM, 0.0437 µM and 0.0437 µM, respectively. In addition, in test [6] (setting [8]), the 50% effective dose (ED50) – broadly, the dose at which the effect has come halfway, by size or by number of responders – was no less than 2.5 mg/kg.
Take `Cc1nc2c(N3CCOCC3)ccnn2c1-c1ccc(C(C)C)nc1` [compound 32, 2-methyl-3-[6-(1-methylethyl)-3-pyridinyl]-8-(4-morpholinyl)-imidazo[1,2-b]pyridazine]: the IC50 (in test [1]; in test [2]; in [3]; in [4]; in [5]; on PDE5A3) was greater than 10 µM each time. The IC50 on PDE4D3 was greater than 10 µM; in test [7] (setting [9]) it was 0.0776 µM; in test [7] (setting [10]), 0.0776 µM. For the same compound, the ED50 in test [6] (setting [8]) turned out to be 5 mg/kg.
Turning to `Cc1nc2c(N3CCOCC3)ccnn2c1-c1ccc(C2CC2)nc1` [compound 33, 3-(6-cyclopropyl-3-pyridinyl)-2-methyl-8-(4-morpholinyl)-imidazo[1,2-b]pyridazine], the IC50 (in test [1]; in test [2]; in test [3]; in test [4]; in [5]; at PDE5A3) was greater than 10 µM in each case. The IC50 on PDE4D3 is greater than 10 µM; in [7] (setting [9]), 0.0776 µM; in [7] (setting [10]) it was 0.0776 µM. The compound also displayed a 50% effective dose (ED50) in [6] (setting [11]) of no less than 2.5 mg/kg.
Regarding `Cc1nc2c(N3CCOCC3)ccnn2c1-c1ccnc(N2CCOCC2)c1` [compound 91, 2-methyl-8-(4-morpholinyl)-3-[2-(4-morpholinyl)-4-pyridinyl]-imidazo[1,2-b]pyridazine], the IC50 in test [1] was greater than 10 µM; in test [2], greater than 10 µM; in test [3], greater than 10 µM; in test [4] it was greater than 10 µM; in test [5] it was greater than 10 µM; on PDE5A3, 8.51 µM. In addition, the results for the IC50 (on PDE4D3; in [7] (setting [9]); in [7] (setting [10])) were greater than 10 µM, 0.0468 µM and 0.0468 µM, respectively. Also, the ED50 in test [6] (setting [8]) was 1.2 mg/kg.
`COCCn1cc(-c2c(C)nc3c(N4CCOCC4)cc(C)nn23)cn1` [compound 133, 3-[1-(2-methoxyethyl)-1H-pyrazol-4-yl]-2,6-dimethyl-8-(4-morpholinyl)-imidazo[1,2-b]pyridazine]: the IC50 was greater than 10 µM in [1]; greater than 10 µM in [2]; greater than 10 µM in [3]; greater than 10 µM in [4]; greater than 10 µM in [5]; 2.4 µM on PDE5A3. Also, the IC50 at PDE4D3 was greater than 10 µM; in test [7] (setting [9]) it was 0.0955 µM; in test [7] (setting [10]), 0.0955 µM. The same compound came in with an ED50 in test [6] (setting [8]) of 3.1 mg/kg.
In the case of `COCCn1cc(-c2c(C)nc3c(-c4ccncc4)cc(C)nn23)cn1` [compound 134, 3-[1-(2-methoxyethyl)-1H-pyrazol-4-yl]-2,6-dimethyl-8-(4-pyridinyl)-imidazo[1,2-b]pyridazine], the IC50 in test [1] was 4.9 µM; in [2], 5.37 µM; in test [3], 8.13 µM; in test [4] it was greater than 10 µM; in test [5], greater than 10 µM; on PDE5A3, 0.589 µM. Moreover, the IC50 on PDE4D3 was 5.5 µM; in test [7] (setting [9]) it was 0.105 µM; in [7] (setting [10]), 0.105 µM. The compound also gave a 50% effective dose (ED50) in test [6] (setting [8]) of 5 mg/kg.
`Cc1nc2c(-c3ccncc3)ccnn2c1-c1cnn(CC(F)(F)F)c1` [compound 135, 2-methyl-8-(4-pyridinyl)-3-[1-(2,2,2-trifluoroethyl)-1H-pyrazol-4-yl]-imidazo[1,2-b]pyridazine]: the IC50 in test [1] is greater than 10 µM; in test [2], 5.89 µM; in test [3], greater than 10 µM; in test [4], 7.41 µM; in test [5] it was greater than 10 µM; at PDE5A3, 2.57 µM. Further, the IC50 on PDE4D3 is greater than 10 µM; in test [7] (setting [9]) it was 0.0182 µM; in [7] (setting [10]), 0.0182 µM. Moreover, the ED50 in test [6] (setting [11]) was 3.1 mg/kg.
As to `Cc1nc2c(N3CCOCC3)cc(Cl)nn2c1-c1cnn(CC(F)(F)F)c1` [compound 146, 6-chloro-2-methyl-8-(4-morpholinyl)-3-[1-(2,2,2-trifluoroethyl)-1H-pyrazol-4-yl]-imidazo[1,2-b]pyridazine], the IC50 in test [1] was 8.51 µM; in test [2], greater than 10 µM; in test [3], greater than 10 µM; in test [4], greater than 10 µM; in test [5], greater than 10 µM; on PDE5A3, 1.91 µM. The figures for the IC50 (at PDE4D3; in test [7] (setting [9]); in test [7] (setting [10])) were greater than 10 µM, 0.0525 µM and 0.0525 µM, respectively.
